Test results reported in a melting point compilation (Tetko et al.; mined from patent text by program, amines drawn as free bases though some values may be those of a salt).

First: Cc1oc(-c2ccccc2)nc1CCOc1ccc(I)cn1
Second: CCOc1nc2c(C)sc(C(=O)OC)c2n1Cc1ccc(-c2ccccc2)c(-c2nc(=O)o[nH]2)c1
The melting point of the first is lower: 105 to 106 °C for the first, 208 to 210 °C for the second.

Compared with `C=CC(O)c1cccc(C=Cc2ccc3ccc(Cl)cc3n2)c1` (centres undefined), `OC(c1ccc(F)cc1)(c1ncc[nH]1)c1ccc(Cl)cc1Cl` (centres undefined) is higher in melting point: 110 to 112 °C for the first, 194 °C for the second.

First: O=C(O)CN(Cc1ccccc1)C(=S)CCc1nc2c(F)c(F)cc(F)c2s1
Second: Oc1ccc(OCc2ccccc2)c(F)c1
The melting point of the first is higher: 138 to 140 °C for the first, 80 to 82 °C for the second.

First: CCOC(=O)c1c(NC=CC(=O)C(C)C)sc(-c2ccccc2)c1C
Second: CCOC(=O)c1c(Nc2ccccc2C)n[nH]c1C
The melting point of the first is lower: 104 to 108 °C for the first, 156 to 160 °C for the second.

First: CCC(O)CN1CCC(CCN2CCN(c3cccc(Cl)c3Cl)CC2)CC1 (centres undefined)
Second: O=C1CCCC(CN2CCN(c3ccccn3)CC2)C1 (centres undefined)
The melting point of the first is higher: 94 °C for the first, 86 to 90 °C for the second.

First: COc1ccc(Oc2ccc(C(C)=C3SCCCS3)cc2)cc1OC
Second: COc1ccc(C(=O)C2=C(O)C(=O)N(c3ccc(C)nn3)C2c2ccc(OC(F)(F)F)cc2)cc1 (centres undefined)
The melting point of the first is lower: 73.5 to 75.5 °C for the first, 265 °C for the second.

First: Clc1ccc(O[C@@H]2CCNC[C@H]2c2ccccc2)cc1 (relative stereo)
Second: O[C@@H]1CNCC[C@H]1Sc1ccccc1 (relative stereo)
The melting point of the first is lower: 102 to 103 °C for the first, 135 to 136 °C for the second.

First: COc1cc(-c2c(-c3ccncc3)c(-c3ccc(F)cc3)nn2CCO)ccn1
Second: Cn1c(-c2ccc(-c3ccncc3)cc2)cnc1[C@H](Cc1ccccn1)N(C=O)c1cc2cc(Cl)ccc2o1
The melting point of the first is higher: 168 to 169 °C for the first, 135 to 140 °C for the second.

Compared with `COC(=O)C1=C(C)NC(C)=C(C(=O)OCCCOc2ccc(CCOC3CCCCO3)cc2)C1c1cccc([N+](=O)[O-])c1` (centres undefined), `CCCOC(=O)C1=C(C)NC(C)=C(C(=O)OCC2CC2)C1c1cccc([N+](=O)[O-])c1` (centres undefined) is higher in melting point: under 50 °C for the first, 167 to 168 °C for the second.

Compared with `Cc1cc(=O)c(O)co1`, `Cc1cc(/C=[N+](\[O-])C(C)C)cc(C)c1O` is higher in melting point: 152 to 153 °C for the first, 201 to 203 °C for the second.

First: COC(=O)CCC(C)C(=O)N1CCC[C@H]1C(=O)O (some centres undefined)
Second: CC(C)(C)NC(=O)[C@@H]1CCCN1C(=O)[C@@H](O)[C@H](Cc1ccccc1)NC(=O)[C@H](CC(N)=O)NC(=O)COC1CCN(C(=O)OCc2ccccc2)CC1
The melting point of the first is higher: 174 to 175 °C for the first, 98 to 104 °C for the second.

First: COc1ccc(C2COCCOC2)c2sc(NC(=O)c3ccnc(CN4CCCC4)c3)nc12
Second: CC(C)c1ccc(-n2ncc(C(=O)NC34CC5CC(CC(C5)C3)C4)c2OCCN2CCOCC2)cc1
The melting point of the first is lower: 108 to 111 °C for the first, 132 to 134 °C for the second.

First: CCc1ccc(O)c(C(=NO)c2ccc(Cl)cc2)c1
Second: O=C(O)CCC(=O)c1ccc(-c2ccc(Cl)c(Cl)c2)cc1
The melting point of the first is lower: 117 °C for the first, 154 to 156 °C for the second.

First: NCc1ccc2cc(O)ccc2c1
Second: COc1ccc2ccc(C(=O)CNC(=O)Cc3ccc4ccccc4c3)cc2c1
The melting point of the first is higher: 188 to 192 °C for the first, 169 to 173 °C for the second.

First: CN1C(=O)Cc2cc(CBr)cnc21
Second: CN1C(=O)CCC2(C)c3ccc(Sc4ccccn4)cc3CCC12 (single isomer, unassigned; (+))
The melting point of the first is lower: 65 °C for the first, 174 to 176 °C for the second.

First: C/C(=C\c1ccc(C(=O)OC(C)C)cc1)c1ccc2c(c1)C(C)(C)CCC2(C)C
Second: Cc1nn(C)c(F)c1C(=O)Nc1cccc2c1C(C)CC2(C)C (centres undefined)
The melting point of the first is lower: 119 to 120 °C for the first, 137 °C for the second.

First: CCCCCCCCCCCCN1CCN(CCCCCCNc2cc(OC)cc3c(C)ccnc23)CC1
Second: CCCCCCCCCCCCCCCCOCC(CNS(=O)(=O)CCCCl)COC (centres undefined)
The melting point of the first is higher: 53 to 55 °C for the first, 44 to 46.5 °C for the second.

First: CC(C)c1cc(S(N)(=O)=O)c(C(C)C)cc1C(F)(F)F
Second: CCOC(=O)NNc1ccc(-c2cccc(C(F)(F)F)c2)nn1
The melting point of the first is higher: 171 to 174 °C for the first, 168 to 170 °C for the second.

First: CNC(=O)c1cc(F)c(Cl)cc1Oc1cccc(OC)c1C
Second: COc1cccc(OC)c1C(=O)Oc1cc([N+](=O)[O-])cc([N+](=O)[O-])c1O
The melting point of the first is lower: 127 to 128 °C for the first, 217 to 218 °C for the second.

Compared with `O=C(Nc1ccccn1)C(CC1CCCC1)c1ccc(S(=O)(=O)C(F)(F)F)cc1` (centres undefined), `COc1ccc2nc(NC(=O)C(CC3CCCC3)c3ccc(S(=O)(=O)NC4CC4)cc3)sc2n1` (centres undefined) is higher in melting point: 58 to 62 °C for the first, 235 to 237 °C for the second.

First: CCOC(=O)c1c(CC)ncnc1NCCc1ccc(CCO)cc1
Second: CCOc1ccc(CCNC(=O)/C=C/c2cccs2)cc1S(N)(=O)=O
The melting point of the first is higher: 68 to 71 °C for the first, 55 °C for the second.

First: CC1CC2C3CCC4=CC(=O)CCC4=C3CCC2(C)C1O (centres undefined)
Second: O=C1c2ccccc2CN1C1CCNCC1
The melting point of the first is higher: 146 to 148 °C for the first, 144 to 146 °C for the second.

Compared with `CN1CCN(c2ccc(-c3nc4c(N[C@H]5[C@@H](C(N)=O)[C@@H]6C=C[C@H]5C6)c(Br)cnc4[nH]3)cc2)CC1`, `CN1CCN(c2ccc(-c3nc(C(=O)Nc4nccs4)c(-c4ccc(Cl)cc4)[nH]3)cc2)CC1` is higher in melting point: 215 to 218 °C for the first, over 250 °C for the second.

Compared with `CC(C)NCC(O)COc1ccc2c(=O)cc(-c3cc(OCc4ccccc4)cc(OCc4ccccc4)c3)oc2c1` (centres undefined), `O=C(O)/C(=C/c1ccc(OCc2ccccc2)cc1OCc1ccccc1)NC(=O)c1ccccc1` is lower in melting point: 173 to 174 °C for the first, 149 to 150 °C for the second.

First: CCOC(=O)CCCCCCC1NC(=O)NC1=O (centres undefined)
Second: CC(C)CNC(=O)/C=C/C=C/CCCCCCOCc1cccc(C(F)(F)F)c1
The melting point of the first is higher: 110 °C for the first, 48 to 50 °C for the second.

Compared with `N#Cc1cccc(-c2c(C(N)=O)c3n(c2Cl)CCNC3)c1`, `O=C(O)c1cc2ccccc2n1Cc1cccc(Cl)c1` is higher in melting point: 151 to 153 °C for the first, 188 to 189 °C for the second.

First: Cc1cc2c(s1)N(C(C)C)c1ccccc1N=C2N1CCN(C)CC1
Second: CC(C)(C)c1nc2cc(N3CCSCC3)c(N)cc2s1
The melting point of the first is lower: 120 to 121 °C for the first, 170 to 175 °C for the second.

First: COC(=O)CC[C@H](NC(=O)c1ccc(CCn2cnc3nc(NC(=O)C(C)(C)C)cc-3c2O)cc1)C(=O)OC
Second: CC(C)(C)OC(=O)NCCNC(=O)c1ccc(Cl)cc1
The melting point of the first is higher: 247 °C for the first, 141 to 143 °C for the second.

First: CCCN(CCC)C(N)=C(C#N)C#N
Second: CCCCc1c(Cl)nc(N)nc1Cl
The melting point of the first is lower: 100 to 105 °C for the first, 169 to 170 °C for the second.

First: Nc1sc(-c2ccc(Cl)cc2)c(CN(C2CCCCC2)C2CCCCC2)c1C(=O)c1ccc(Cl)cc1
Second: CCCN(C1=C(O)CC(C2CCCC2)(C2CCCC2)OC1=O)c1cccc(NS(=O)(=O)c2cccs2)c1
The melting point of the first is higher: 200 to 204 °C for the first, 92 to 95 °C for the second.

Compared with `CCCCOC(=O)[C@H]1CN(c2cc(F)c(N3CCSCC3)c(F)c2)C(=O)O1`, `CC(C)(C)OC(=O)N1CCc2c(n(CCO)c3c(Cl)cc(Cl)cc23)CC1` is higher in melting point: 102 to 103 °C for the first, 183 to 184 °C for the second.

First: COc1ccc(OC)c(Nc2c(-c3ccc(S(C)(=O)=O)cc3)cnn(CC(F)(F)F)c2=O)c1
Second: Cc1cc(F)ccc1C1(c2ccc(S(C)(=O)=O)cc2C)CSC=C1c1ccc(S(C)(=O)=O)cc1 (centres undefined)
The melting point of the first is lower: 95 to 96 °C for the first, 158 to 160 °C for the second.

`CC(C)S(=O)c1ccc2[nH]nc(Nc3nccs3)c2c1` (centres undefined) and `Cc1nccc2[nH]c(=O)c(C#N)cc12` cannot be ordered by melting point: over 240 °C for the first, 275 to 277 °C for the second.

Going from `COc1nc(N)nc(OC)c1C1=NCCN1` to `CN(C)C=Nc1nc(Cl)c2[nH]cnc2n1`, the melting point rises from 230 °C to 300 °C.

First: COc1cc2cc(-c3cc(C)c(O)c(C)c3)[nH]c(=O)c2c(OC)c1CN1CCOCC1
Second: CC#COc1ccc2c(C)cc(=O)oc2c1
The melting point of the first is higher: 158 to 161 °C for the first, 140 to 141 °C for the second.

Compared with `COC(=O)c1cc(Br)c(O)c(O)c1Cl`, `COC(=O)CC(=O)c1ccccc1OCc1ccccc1C` is lower in melting point: 103 °C for the first, 38 to 42 °C for the second.

Compared with `CCOC(=O)/C(=N/OC)c1ccc(OCCOc2ccc3ccccc3c2)s1`, `COc1ccccc1NC(=O)Nc1nc(Oc2ccc3ccccc3c2)nc(N(CCC(=O)O)Cc2ccc(C)cc2)n1` is higher in melting point: 132 to 134 °C for the first, 202 to 205 °C for the second.

Compared with `c1ccc2c(c1)CSc1ccccc1C2n1ccnc1` (centres undefined), `CCCCc1nn2ccccc2c1Cc1ccc(Br)cc1` is lower in melting point: 162 to 164 °C for the first, under 50 °C for the second.

First: CC(C)Sc1c(N)cccc1C#N
Second: N#CC1CCC(c2ccc(N)cc2)CC1 (centres undefined)
The melting point of the first is lower: 82 °C for the first, 132 to 140 °C for the second.

First: CC(CO)(CO)NS(=O)(=O)c1cccc([N+](=O)[O-])c1
Second: CC(C)(C)c1cc(CN(c2cccnc2)S(=O)(=O)c2cccc([N+](=O)[O-])c2)cc(C(C)(C)C)c1O
The melting point of the first is higher: 116 °C for the first, 99 to 107 °C for the second.

Compared with `CNCC(C(=O)O)c1ccc(O)cc1` (centres undefined), `COC(=O)CC(C(=O)OC)C(=O)c1ccccc1OC` (centres undefined) is lower in melting point: 218 to 221 °C for the first, 75 to 76 °C for the second.

Compared with `CSC(SC)=C1C(=O)CCCC1=O`, `Cc1ccc(S(=O)(=O)Oc2cccc3c2CCCN3)cc1` is higher in melting point: 66 to 67 °C for the first, 112 to 113 °C for the second.

First: O=C1CCC2N1CC(=O)N2c1ccccc1 (centres undefined)
Second: O=C1NCC(Cc2ccccc2O)O1 (centres undefined)
The melting point of the first is higher: 185 to 188 °C for the first, 93 to 95 °C for the second.

First: Cc1cc(C)cc(C(=O)N2CCN(C(=O)CN(CCO)C3CCN(Cc4ccccc4)CC3)C(c3ccc(Cl)c(Cl)c3)C2)c1 (racemic)
Second: CN(CC(=O)N1c2ccccc2N(Cc2ccccc2)C(=O)[C@H]2CCC[C@H]21)Cc1ccccc1 (relative stereo)
The melting point of the first is lower: 70 to 73 °C for the first, 75 to 78 °C for the second.

Compared with `COc1cc(COc2nn(-c3ccccc3)cc2/C=C/c2csc(C(C)(C)C)n2)ccc1OCc1nc(-c2ccc(CC(=O)O)cc2)oc1C`, `Cc1ccc2cccc(OCc3c(Cl)ccc(C(=O)NCCN4C(=O)c5ccccc5C4=O)c3Cl)c2n1` is higher in melting point: 113 to 115 °C for the first, 210 to 212 °C for the second.

`Cc1nc2c(C#N)cnn2c2c1CCN2C(C)(C)C` and `CC(C)(C)C(NC(=O)COc1ccccc1)Nc1c(Nc2cccnc2Cl)c(=O)c1=O` (centres undefined) cannot be ordered by melting point: 220 to 224 °C for the first, 220 to 221 °C for the second.

First: N#Cc1ccc(C=O)c(SCCc2ccccc2)c1
Second: O=C1N(CCCCl)c2ccccc2C12COc1cc3c(cc12)OCO3 (centres undefined)
The melting point of the first is lower: 89 °C for the first, 144 to 146 °C for the second.

First: NC(=O)C[C@H](NC(=O)c1ccc(OCc2ccccc2)cc1OCc1ccccc1)C(=O)N1CCN(Cc2ccccc2)CC1
Second: CCCc1nn(-c2ccc(C(F)(F)F)cn2)cc1CCCOc1c(F)cccc1CC(=O)O
The melting point of the first is lower: 66 to 68 °C for the first, 105 to 106 °C for the second.

First: CCc1cn(C2CC(O)C(CN=[N+]=[N-])O2)c(=O)nc1NC(=O)c1ccccc1 (centres undefined)
Second: C=C1C(O)C(CO)OC1n1cc(C)c(=O)[nH]c1=O (centres undefined)
The melting point of the first is lower: 125 to 126 °C for the first, 161 to 162 °C for the second.

`CSc1cc(C(F)(F)F)nn1-c1ccc(NC(=O)c2ccncc2F)cc1` showed a melting point of 142 to 143 °C.
